Results reported in patent publication US20250034136A1 (Nimbus Wadjet, Inc., priority 2023, published 2025).

Assays:
[1] = tested on: p21 induction in HCT116 cells; test: p21 induction in HCT116 cells; type: cell-based; details: Homo sapiens, HCT-116, 24 h, HCT116 cells, 24 h compound incubation; read-out: P21_EC50
Outline: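 EC50 from non-linear curve fit of p21 immunofluorescence (800 nm), with GAPDH (700 nm) read alongside. DMSO and a reference WRN inhibitor served as low and high controls. Cells (2,000/well) got 11 compound concentrations in duplicate for 24 h at 37 °C.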

[2] = target: WRN (BV08), human Werner helicase (Uniprot Q14191, amino acids 517-1235 with L1074F point mutation) (Homo sapiens (Human), UniProt Q14191, L1074F); test: WRN (BV08) ADP-Glo assay; type: biochemical; details: class symbols A-E, read-out: ADP-Glo_hWRN_IC50
Sequence of WRN (BV08), human Werner helicase (Uniprot Q14191, amino acids 517-1235 with L1074F point mutation) (Q14191 other isoform, or with tags, fused parts or gaps L1074F (already in the parent)): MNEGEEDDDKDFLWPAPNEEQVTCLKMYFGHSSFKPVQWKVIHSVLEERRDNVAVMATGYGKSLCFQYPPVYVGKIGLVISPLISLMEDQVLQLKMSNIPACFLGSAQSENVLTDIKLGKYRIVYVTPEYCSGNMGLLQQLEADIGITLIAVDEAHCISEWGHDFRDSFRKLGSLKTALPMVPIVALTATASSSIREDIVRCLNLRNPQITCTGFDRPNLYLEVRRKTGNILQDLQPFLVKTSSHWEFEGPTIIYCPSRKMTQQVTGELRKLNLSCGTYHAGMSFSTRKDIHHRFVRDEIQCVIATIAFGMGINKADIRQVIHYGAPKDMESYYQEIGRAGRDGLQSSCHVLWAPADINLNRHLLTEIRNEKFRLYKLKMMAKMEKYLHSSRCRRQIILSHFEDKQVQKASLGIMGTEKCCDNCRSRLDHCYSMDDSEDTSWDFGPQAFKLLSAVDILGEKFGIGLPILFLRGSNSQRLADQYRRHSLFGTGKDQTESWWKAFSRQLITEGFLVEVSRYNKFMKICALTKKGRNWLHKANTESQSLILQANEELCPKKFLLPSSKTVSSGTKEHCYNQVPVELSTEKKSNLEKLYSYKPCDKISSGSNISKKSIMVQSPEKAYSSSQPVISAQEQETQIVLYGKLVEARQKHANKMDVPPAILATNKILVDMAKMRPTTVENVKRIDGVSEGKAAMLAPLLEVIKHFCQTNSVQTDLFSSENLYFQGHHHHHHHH

Row | Structure (SMILES) | EC50 [1] [nM] | IC50 [2] [nM]
1 | CCc1c(N2CCN(C(=O)c3c(Oc4cnn(C)c4)ncc(C)c3O)[C@H]3CC[C@@H]32)c(=O)c2nc(N(C)C)cnc2n1CC(=O)Nc1ccc(C(F)(F)F)cc1Cl [I-273, N-[2-chloro-4-(trifluoromethyl)phenyl]-2-[2-(dimethylamino)-6-ethyl-7-[(1S,6S)-5-{4-hydroxy-5-methyl-2-[(1-methyl-1H-pyrazol-4-yl)oxy]pyridine-3-carbonyl}-2,5-diazabicyclo[4.2.0]octan-2-yl]-8-oxo-5H,8H-pyrido[2,3-b]pyrazin-5-yl]acetamide] | < 500 | 5 to 50
2 | CCc1c(N2CCN(C(=O)c3c(OC)ncc(OC)c3O)[C@H]3CC[C@@H]32)c(=O)c2nc(N(C)C)cnc2n1CC(=O)Nc1ccc(C(F)(F)F)cc1Cl [I-274] | < 500 | 5 to 50
3 | CCOc1ncc(C)c(O)c1C(=O)N1CCN(c2c(CC)n(CC(=O)Nc3ccc(C(F)(F)F)cc3Cl)c3ncc(N(C)C)nc3c2=O)[C@H]2CC[C@@H]21 [I-275, N-[2-chloro-4-(trifluoromethyl)phenyl]-2-[2-(dimethylamino)-7-[(1S,6S)-5-(2-ethoxy-4-hydroxy-5-methylpyridine-3-carbonyl)-2,5-diazabicyclo[4.2.0]octan-2-yl]-6-ethyl-8-oxo-5H,8H-pyrido[2,3-b]pyrazin-5-yl]acetamide] | < 500 | 5 to 50
4 | CCc1c(N2CCN(C(=O)c3c(OC)ncc(C(F)F)c3O)[C@H]3CC[C@@H]32)c(=O)c2nc(N(C)C)cnc2n1CC(=O)Nc1ccc(C(F)(F)F)cc1Cl [I-280, N-[2-chloro-4-(trifluoromethyl)phenyl]-2-{7-[(1S,6S)-5-[5-(difluoromethyl)-4-hydroxy-2-methoxypyridine-3-carbonyl]-2,5-diazabicyclo[4.2.0]octan-2-yl]-2-(dimethylamino)-6-ethyl-8-oxo-5H,8H-pyrido[2,3-b]pyrazin-5-yl}acetamide] | > 5000 | 5 to 50
5 | CCc1c(N2CCN(C(=O)c3c(OC(F)F)ncc(C)c3O)[C@H]3CC[C@@H]32)c(=O)c2nc(N(C)C)cnc2n1CC(=O)Nc1ccc(C(F)(F)F)cc1Cl [I-281, N-[2-chloro-4-(trifluoromethyl)phenyl]-2-{7-[(1S,6S)-5-[2-(difluoromethoxy)-4-hydroxy-5-methylpyridine-3-carbonyl]-2,5-diazabicyclo[4.2.0]octan-2-yl]-2-(dimethylamino)-6-ethyl-8-oxo-5H,8H-pyrido[2,3-b]pyrazin-5-yl}acetamide] | < 500 | 5 to 50
6 | CCc1c(N2CCN(C(=O)c3c(OCCOC)ncc(C)c3O)[C@H]3CC[C@@H]32)c(=O)c2nc(N(C)C)cnc2n1CC(=O)Nc1ccc(C(F)(F)F)cc1Cl [I-282, N-[2-chloro-4-(trifluoromethyl)phenyl]-2-[2-(dimethylamino)-6-ethyl-7-[(1S,6S)-5-[4-hydroxy-2-(2-methoxyethoxy)-5-methylpyridine-3-carbonyl]-2,5-diazabicyclo[4.2.0]octan-2-yl]-8-oxo-5H,8H-pyrido[2,3-b]pyrazin-5-yl]acetamide] | < 500 | 5 to 50
7 | CCc1c(N2CCN(C(=O)c3c(OC)ncc(C4CC4)c3O)[C@H]3CC[C@@H]32)c(=O)c2nc(N(C)C)cnc2n1CC(=O)Nc1ccc(C(F)(F)F)cc1Cl [I-286, N-[2-chloro-4-(trifluoromethyl)phenyl]-2-{7-[(1S,6S)-5-(5-cyclopropyl-4-hydroxy-2-methoxypyridine-3-carbonyl)-2,5-diazabicyclo[4.2.0]octan-2-yl]-2-(dimethylamino)-6-ethyl-8-oxo-5H,8H-pyrido[2,3-b]pyrazin-5-yl} acetamide] | < 500 | 5 to 50
8 | CCc1c(N2CCN(C(=O)c3c(OC)ncc(C4CCOC4)c3O)[C@H]3CC[C@@H]32)c(=O)c2nc(N(C)C)cnc2n1CC(=O)Nc1ccc(C(F)(F)F)cc1Cl (stereo partly drawn) [I-287, N-[2-chloro-4-(trifluoromethyl)phenyl]-2-[2-(dimethylamino)-6-ethyl-7-[(1S,6S)-5-[4-hydroxy-2-methoxy-5-(oxolan-3-yl)pyridine-3-carbonyl]-2,5-diazabicyclo[4.2.0]octan-2-yl]-8-oxo-5H,8H-pyrido[2,3-b]pyrazin-5-yl]acetamide] | < 500 | 5 to 50
9 | CCc1c(N2CCN(C(=O)c3c(OC)ncc(COC)c3O)[C@H]3CC[C@@H]32)c(=O)c2nc(N(C)C)cnc2n1CC(=O)Nc1ccc(C(F)(F)F)cc1Cl [I-292, N-[2-chloro-4-(trifluoromethyl)phenyl]-2-[2-(dimethylamino)-6-ethyl-7-[(1S,6S)-5-[4-hydroxy-2-methoxy-5-(methoxymethyl)pyridine-3-carbonyl]-2,5-diazabicyclo[4.2.0]octan-2-yl]-8-oxo-5H,8H-pyrido[2,3-b]pyrazin-5-yl]acetamide] | > 5000 | 5 to 50

Now from value to compound:

Row | EC50 [1] [nM] | IC50 [2] [nM] | Structure (SMILES)
10 | 500 to 2000 | 5 to 50 | CCc1c(N2CCN(C(=O)c3ncnc(C)c3O)[C@H]3CC[C@@H]32)c(=O)c2nc(N3CC[C@@H](O)C3)cnc2n1CC(=O)Nc1ccc(C(F)(F)F)cc1Cl [I-270, N-[2-chloro-4-(trifluoromethyl)phenyl]-2-{6-ethyl-7-[(1S,6S)-5-(5-hydroxy-6-methylpyrimidine-4-carbonyl)-2,5-diazabicyclo[4.2.0]octan-2-yl]-2-[(3R)-3-hydroxypyrrolidin-1-yl]-8-oxo-5H,8H-pyrido[2,3-b]pyrazin-5-yl}acetamide]
11 | 500 to 2000 | 5 to 50 | CCc1c(N2CCN(C(=O)c3ncnc(C)c3O)[C@H]3CC[C@@H]32)c(=O)c2nc(N3CC[C@H](O)C3)cnc2n1CC(=O)Nc1ccc(C(F)(F)F)cc1Cl [I-271, N-[2-chloro-4-(trifluoromethyl)phenyl]-2-{6-ethyl-7-[(1S,6S)-5-(5-hydroxy-6-methylpyrimidine-4-carbonyl)-2,5-diazabicyclo[4.2.0]octan-2-yl]-2-[(3S)-3-hydroxypyrrolidin-1-yl]-8-oxo-5H,8H-pyrido[2,3-b]pyrazin-5-yl}acetamide]
12 | < 500 | 5 to 50 | CCc1c(N2CCN(C(=O)c3ncnc(C)c3O)[C@H]3CC[C@@H]32)c(=O)c2nc(-c3cncs3)cnc2n1CC(=O)Nc1ccc(C(F)(F)F)cc1Cl [I-272, N-[2-chloro-4-(trifluoromethyl)phenyl]-2-{6-ethyl-7-[(1S,6S)-5-(5-hydroxy-6-methylpyrimidine-4-carbonyl)-2,5-diazabicyclo[4.2.0]octan-2-yl]-8-oxo-2-(1,3-thiazol-5-yl)-5H,8H-pyrido[2,3-b]pyrazin-5-yl}acetamide]
13 | < 500 | ≤ 5 | CCc1c(N2CCN(C(=O)c3ncnc(C)c3O)[C@H]3CC[C@@H]32)c(=O)c2nc(-c3ccnc(OC)c3)cnc2n1CC(=O)Nc1ccc(C(F)(F)F)cc1Cl [I-283, N-[2-chloro-4-(trifluoromethyl)phenyl]-2-{6-ethyl-7-[(1S,6S)-5-(5-hydroxy-6-methylpyrimidine-4-carbonyl)-2,5-diazabicyclo[4.2.0]octan-2-yl]-2-(2-methoxypyridin-4-yl)-8-oxo-5H,8H-pyrido[2,3-b]pyrazin-5-yl}acetamide]
14 | < 500 | 5 to 50 | CCc1c(N2CCN(C(=O)c3ncnc(C)c3O)[C@H]3CC[C@@H]32)c(=O)c2nc(C3=CCOCC3)cnc2n1CC(=O)Nc1ccc(C(F)(F)F)cc1Cl [I-284, N-[2-chloro-4-(trifluoromethyl)phenyl]-2-[2-(3,6-dihydro-2H-pyran-4-yl)-6-ethyl-7-[(1S,6S)-5-(5-hydroxy-6-methylpyrimidine-4-carbonyl)-2,5-diazabicyclo[4.2.0]octan-2-yl]-8-oxo-5H,8H-pyrido[2,3-b]pyrazin-5-yl]acetamide]
15 | 500 to 2000 | 5 to 50 | CCc1c(N2CCN(C(=O)c3ncnc(C)c3O)[C@H]3CC[C@@H]32)c(=O)c2nc(CN3CCOCC3)cnc2n1CC(=O)Nc1ccc(C(F)(F)F)cc1Cl [I-285, N-[2-chloro-4-(trifluoromethyl)phenyl]-2-{6-ethyl-7-[(1S,6S)-5-(5-hydroxy-6-methylpyrimidine-4-carbonyl)-2,5-diazabicyclo[4.2.0]octan-2-yl]-2-[(morpholin-4-yl)methyl]-8-oxo-5H,8H-pyrido[2,3-b]pyrazin-5-yl}acetamide]
16 | < 500 | 5 to 50 | CCc1c(N2CCN(C(=O)c3ncnc(C)c3O)[C@H]3CC[C@@H]32)c(=O)c2nc(N(C)C3CCC(O)C3)cnc2n1CC(=O)Nc1ccc(C(F)(F)F)cc1Cl (stereo partly drawn) [I-288, N-[2-chloro-4-(trifluoromethyl)phenyl]-2-{6-ethyl-7-[(1S,6S)-5-(5-hydroxy-6-methylpyrimidine-4-carbonyl)-2,5-diazabicyclo[4.2.0]octan-2-yl]-2-[(3-hydroxycyclopentyl)(methyl)amino]-8-oxo-5H,8H-pyrido[2,3-b]pyrazin-5-yl}acetamide]
17 | 500 to 2000 | 5 to 50 | CCc1c(N2CCN(C(=O)c3ncnc(C)c3O)[C@H]3CC[C@@H]32)c(=O)c2nc(N(C)C)cnc2n1CC(=O)Nc1ccc(OC)cc1Cl [I-289, N-(2-chloro-4-methoxyphenyl)-2-[2-(dimethylamino)-6-ethyl-7-[(1S,6S)-5-(5-hydroxy-6-methylpyrimidine-4-carbonyl)-2,5-diazabicyclo[4.2.0]octan-2-yl]-8-oxo-5H,8H-pyrido[2,3-b]pyrazin-5-yl]acetamide]
18 | < 500 | 5 to 50 | CCc1c(N2CCN(C(=O)c3ncnc(C)c3O)[C@H]3CC[C@@H]32)c(=O)c2nc(N3CCC4(COC4)C3)cnc2n1CC(=O)Nc1ccc(C(F)(F)F)cc1Cl [I-290, N-[2-chloro-4-(trifluoromethyl)phenyl]-2-{6-ethyl-7-[(1S,6S)-5-(5-hydroxy-6-methylpyrimidine-4-carbonyl)-2,5-diazabicyclo[4.2.0]octan-2-yl]-2-{2-oxa-6-azaspiro[3.4]octan-6-yl}-8-oxo-5H,8H-pyrido[2,3-b]pyrazin-5-yl}acetamide]
